# Measurements taken from BindingDB's records for doi:10.7270/Q2319T8T (The Scripps Research Institute Molecular Screening Center, 2007).
# Biological target: Steroidogenic factor 1 (Homo sapiens, UniProt Q13285)
# Assay: SF-1 inhibitor potency, dose response, cell-based, CHO-K1, Gal4-SF-1 LBD, luciferase luminescence (AID 600)
# [1] = inactive by the depositor's call
# Sequence of Steroidogenic factor 1 (Q13285 whole entry, the tested form may be a part): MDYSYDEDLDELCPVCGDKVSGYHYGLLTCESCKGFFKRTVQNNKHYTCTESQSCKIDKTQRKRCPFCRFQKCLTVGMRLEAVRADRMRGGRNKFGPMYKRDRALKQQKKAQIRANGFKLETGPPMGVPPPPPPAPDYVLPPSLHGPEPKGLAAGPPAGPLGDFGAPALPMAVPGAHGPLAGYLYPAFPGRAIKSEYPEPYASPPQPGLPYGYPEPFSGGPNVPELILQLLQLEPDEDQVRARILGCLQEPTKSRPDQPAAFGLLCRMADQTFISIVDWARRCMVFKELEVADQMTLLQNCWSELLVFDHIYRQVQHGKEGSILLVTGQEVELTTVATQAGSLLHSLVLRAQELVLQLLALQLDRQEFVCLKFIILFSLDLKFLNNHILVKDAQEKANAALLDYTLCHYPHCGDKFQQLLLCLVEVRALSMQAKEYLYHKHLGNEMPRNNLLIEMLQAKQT
Structure (SMILES),IC50,IC50 [1]
O=C(CC=Nc1ccccn1)c1ccc(Cl)cc1 [(Z)-1-(4-chlorophenyl)-3-(2-pyridinylamino)-2-propen-1-one],6.09 µM,–
"O=S(=O)(C/C(=C/CO)S(=O)(=O)c1ccccc1)c1ccccc1 [(Z)-3,4-bis(benzenesulfonyl)but-2-en-1-ol]",–,18 µM
"O=C(CC=Nc1ccc2c(c1)OCO2)c1ccccn1 [(Z)-3-(1,3-benzodioxol-5-ylamino)-1-(2-pyridinyl)-2-propen-1-one]",13.6 µM,–
CCOC(=O)c1[n-]c2ccccc2c1[N+]#N [(Z)-(3-diazonio-2-indolylidene)-ethoxymethanolate],11.3 µM,–
"CC[C@]1(O)CC2C[N@](CCc3c([nH]c4ccccc34)[C@@](C(=O)OC)(c3cc4c(cc3OC)N(C)[C@H]3[C@@](O)(C(=O)OC)[C@H](OC(C)=O)[C@]5(CC)C=CCN6CC[C@]43[C@@H]65)C2)C1 [(vinblastine) methyl 12-ethyl-4-[17-ethyl-17-hydroxy-13-methyloxycarbonyl-(13S,15R,17S)-1,11-diazatetracyclo[13.3.1.04,12.05,10]nonadeca-4(12),5,7,9-tetraen-13-yl]-10-hydroxy-5-methoxy-8-methyl-11-methylcarbonyloxy-(10S,11R,12R)-8,16-diazapentac sulfuric acid]",0.986 µM,–
COc1cccc2c1C(=O)c1c(O)c3c(c(O)c1C2=O)C[C@@](O)(C(=O)CO)C[C@@H]3O[C@H]1C[C@H](N)[C@H](O)[C@H](C)O1 [MLS000028393],0.964 µM,–
CCOc1cc(C(=O)CSc2nnc(CNc3ccc(Cl)cc3)o2)ccc1NC(=O)CC [MLS000032332],8.36 µM,–
Nc1ccc(-c2nc3c(Cl)cc(N)cc3[nH]2)cc1 [MLS000034140],5.09 µM,–
Cc1cnc(NC(=O)CN2CCN(c3ccccn3)CC2)s1 [MLS000035284],8.52 µM,–
Cc1cccc(NC(=O)CSc2nnc(-c3cc(C)n(-c4ccccc4)c3C)o2)c1C [MLS000036049],> 1.22 µM,–
CC(=O)c1sc(NC(=O)C2(F)C(F)(F)C(F)(F)C(F)(F)C(F)(F)C2(F)F)nc1C [MLS000040071],–,15.6 µM
COc1ccc(CCNc2nc(C)nc3c2oc2ccccc23)cc1OC [MLS000040997],–,10.1 µM
COc1ccc(CCNc2ncnc3c2oc2ccccc23)cc1OC [MLS000041708],9.38 µM,–
COc1ccc(C=Nn2nnc3ccccc32)cc1 [MLS000043825],> 3.67 µM,–
CS(=O)(=O)c1nc(-c2ccccc2)cc(C(F)(F)F)n1 [MLS000044644],5.09 µM,–
CS(=O)(=O)c1nc(-c2cccs2)cc(C(F)(F)F)n1 [MLS000044645],5.46 µM,–
CCOc1ccc(-c2cc(CCCC(=O)Nc3cc(OC)ccc3OC)no2)cc1 [MLS000045930],–,12.7 µM
Cc1ccc(NC(=O)Cc2nn(C)c(=O)c3ccccc23)cc1F [MLS000047015],–,11.4 µM
Cn1nc(CC(=O)Nc2ccc3c(c2)OCCO3)c2ccccc2c1=O [MLS000047020],–,12.8 µM
CCOc1ccccc1-n1c(SCC(=O)Nc2ccc(CC)cc2)nc2nnc(C)c-2c1N [MLS000047091],5.99 µM,–
CCn1c2ccccc2c2cc(NC(=O)CSc3nnnn3-c3ccccc3)ccc21 [MLS000051054],6.92 µM,–

Structure (SMILES),IC50,IC50 [1]
COc1cc2nc(CN3CC=C(c4ccccc4)CC3)nc(O)c2cc1OC [MLS000053305],1.3 µM,–
COc1ccccc1OCC(=O)c1[nH]c(C)c(C(C)=O)c1C [MLS000053479],–,32.9 µM
CCOC(=O)c1c(C)[nH]c(C(=O)C(C)OC(=O)c2cccc(OCc3c(C)noc3C)c2)c1C (configuration not stated) [MLS000054923],8.24 µM,–
O=C(NC1=NCCS1)C1COc2ccccc2O1 (configuration not stated) [MLS000056062],5.24 µM,–
CC(=O)Nc1ccccc1OCC(=O)c1cc(C)n(Cc2cccs2)c1C [MLS000056239],2.78 µM,–
COc1ccc(CCNc2nnc(Sc3nnnn3-c3ccccc3)s2)cc1OC [MLS000056567],5.15 µM,–
CCSc1nnc(NC(=O)c2ccccn2)s1 [MLS000056851],> 3.67 µM,–
O=S(=O)(Nc1cccc2ncccc12)c1cccs1 [MLS000057468],5.27 µM,–
CC(=O)Nc1ccc(SCC(=O)c2cc(C)n(Cc3cccs3)c2C)cc1 [MLS000058142],4 µM,–
Cc1cc(C)n(-c2ccc3cccc(NS(C)(=O)=O)c3n2)n1 [MLS000062301],3.42 µM,–
c1cncc(-c2nnc(SCc3nc4ccccc4[nH]3)o2)c1 [MLS000062679],> 99 µM,–
O=C(Nc1ccc(N2CCOCC2)cc1)c1cnsn1 [MLS000063695],4.09 µM,–
CC1CCc2nc(NC(=O)c3ccco3)sc2C1 (configuration not stated) [MLS000063711],> 11 µM,–
Cc1cc(NC(=O)c2ccc3c(c2)OCCO3)no1 [MLS000064124],–,13.1 µM
N#C/C(=C\c1ccc(O)c(O)c1)C(=O)NCCCc1ccccc1 [MLS000069704],–,13.5 µM
CCN(C(=O)c1ccc(C(C)(C)C)cc1)c1nnc(Cn2nnc3ccccc32)s1 [MLS000072751],–,10.4 µM
Cc1ccnc(SCC(=O)Nc2sc3c(c2C#N)CCCC3)n1 [MLS000077260],–,13.4 µM
COc1cc(C2Nc3cccc4cccc(c34)N2)cc(OC)c1OC(C)=O [MLS000078084],7.72 µM,–
c1ccc(CN2CCN(c3ncnc4c3[nH]c3ccccc34)CC2)cc1 [MLS000078384],–,15.6 µM
Fc1ccc2[nH]c3c(N4CCSCC4)ncnc3c2c1 [MLS000078401],–,11.8 µM
COc1ccc(OC)c(NS(=O)(=O)c2ccc(N3CCCC3=O)cc2)c1 [MLS000079343],–,36 µM

Structure (SMILES),IC50,IC50 [1]
COc1cc2c(cc1NC(=O)CSc1nnnn1-c1ccccc1)oc1ccccc12 [MLS000082182],6.02 µM,–
CCOc1cc(C(=O)N2CCc3cc(OC)c(OC)cc3C2)ccc1OC(F)F [MLS000083614],–,12.9 µM
Cc1nc(N2CCN(c3ccccc3)CC2)nc(O)c1Cc1cccc2ccccc12 [MLS000084491],> 3.67 µM,–
O=C(CSc1nnnn1-c1ccccc1)Nc1nsc(-c2ccc(Cl)cc2)n1 [MLS000085595],4.9 µM,–
Cc1cc(NC(=O)CCCS(=O)(=O)c2nc(-c3cccs3)cc(C(F)(F)F)n2)no1 [MLS000086269],8.2 µM,–
CC1(C)COCN1S(=O)(=O)c1ccc(C(=O)Nc2nnc(-c3ccc(Cl)s3)o2)cc1 [MLS000086346],7.61 µM,–
COc1ccc(-c2nc(CSCC(=O)NCc3ccco3)c(C)o2)cc1 [MLS000089353],5.87 µM,–
COCCNC(=O)CSCc1nc(-c2ccc(SC)cc2)oc1C [MLS000089367],0.595 µM,–
CN(C)c1ccc(-c2nc3ccccc3n2C)cc1 [MLS000089904],> 3.67 µM,–
O=C(NCc1ccco1)c1ccc2nc3sc4c(c3c(=O)n2c1)CCCC4 [MLS000091875],> 3.67 µM,–
O=C(NCCCN1CCOCC1)c1csc2c1CCCC2 [MLS000093382],> 99 µM,–
O=S(=O)(NCc1cn2ccsc2n1)c1ccc(Oc2ccccc2)cc1 [MLS000094195],–,34.5 µM
O=c1cc(N2CCN(c3cccc(Cl)c3)CC2)[nH]c(=O)n1C1CCCCC1 [MLS000094380],0.315 µM,–
O=c1cc(N2CCN(c3ccccc3)CC2)[nH]c(=O)n1C1CCCCC1 [MLS000094382],2.99 µM,–
CCCC(=O)N1CCN(c2ccc(NC(=O)c3cc4ccccc4o3)cc2Cl)CC1 [MLS000096729],8.79 µM,–
COc1ccc(C(=O)Nn2c(SCC(=O)NCc3ccco3)nc3ccccc3c2=O)cc1 [MLS000097349],5.75 µM,–
O=C(Nc1nc(-c2ccc(Cl)s2)cs1)c1ccncc1 [MLS000098514],> 99 µM,–
O=C(NCCOc1ccccc1)c1ccc2c(c1)OCO2 [MLS000100028],> 1.22 µM,–
O=C(Nc1ccccc1)c1cccc(-c2nnc(-c3ccccc3)o2)c1 [MLS000100081],4.2 µM,–
COc1ccc(-n2ncc3c(N(C)C4CCCCC4)ncnc32)cc1 [MLS000100813],0.292 µM,–
Cc1cccc(-n2ncc3c(N(C)C4CCCCC4)ncnc32)c1 [MLS000100814],> 3.67 µM,–

Structure (SMILES),IC50,IC50 [1]
O=C(Nc1nc2cc3c(cc2s1)OCO3)C1=COCCO1 [MLS000103798],3.7 µM,–
COc1ccc(C(NC(C)=O)c2ccc3cccnc3c2O)c(OC)c1 (configuration not stated) [MLS000109349],> 3.67 µM,–
CN(C)c1ccc(NC(=S)c2ccccn2)cc1 [MLS000111989],2.41 µM,–
Cc1cc(C=Nn2cnnc2)c(C)n1-c1ccc(OCc2ccc(F)cc2)cc1 [MLS000112167],> 3.67 µM,–
Cc1cc(C=Nn2cnnc2)c(C)n1-c1ccc(OCc2ccccc2F)cc1 [MLS000112180],> 3.67 µM,–
Cc1sc(NC(=O)c2ccco2)c(C(c2cccnc2)N2CCN(c3ccc(F)cc3)CC2)c1C (configuration not stated) [MLS000114428],> 11 µM,–
O=C(Nc1nnc(C2CC2)o1)c1ccc(S(=O)(=O)N2CCCc3ccccc32)cc1 [MLS000116109],–,13.7 µM
"O=C(Nc1nc2ccccc2[nH]1)c1ccccc1F [N-1,3-dihydro-2H-benzimidazol-2-ylidene-2-fluorobenzamide]",1.55 µM,–
"N#Cc1c(NC(=O)CSc2nc[nH]n2)sc2c1CCCCC2 [N-(3-cyano-5,6,7,8-tetrahydro-4H-cyclohepta[b]thien-2-yl)-2-(1H-1,2,4-triazol-3-ylthio)acetamide]",0.098 µM,–
"Cc1ccc(-c2csc(N3CCC(NS(=O)(=O)c4ccc5c(c4)OCCO5)CC3)n2)cc1 [N-[1-[4-(4-methylphenyl)-1,3-thiazol-2-yl]piperidin-4-yl]-2,3-dihydro-1,4-benzodioxine-6-sulfonamide]",–,11.3 µM
c1ccc(N=C2N=C(Nc3ccccn3)c3ccccc32)nc1 [N-pyridin-2-yl-3-pyridin-2-yliminoisoindol-1-amine],2.24 µM,–
c1ccc2nc(-c3nc4ccccc4[nH]3)ccc2c1 [SMR000008748],2.38 µM,–
O=S1(=O)C=C(Sc2nc3cc(Cl)ccc3o2)c2ccccc21 [SMR000019512],5.11 µM,–
CCCCS(=O)(=O)/C=C\C=C/S(=O)(=O)CCCC [SMR000020833],1.3 µM,–
CC(=O)c1c(C)[nH]c(C(=O)Nc2ccc(C)cn2)c1C [SMR000026816],–,14.2 µM
CN1C2C=C3C(C#N)=C(N)C(C#N)(C#N)[C@@H](c4ccc(Cl)cc4)[C@@H]3C1CC2 (some centres not stated) [SMR000038778],3.35 µM,–
c1ccc2c(c1)CCN(c1ncnc3c1[nH]c1ccccc13)C2 [SMR000039631],9.03 µM,–
C/C(Cl)=C\Cn1c(NCCc2ccccc2)nc2c1c(=O)n(C)c(=O)n2C [SMR000044779],> 11 µM,–
Cc1ccc2c(c1)[nH]c1c(N3CCN(Cc4ccccc4)CC3)ncnc12 [SMR000044826],> 3.67 µM,–
